PMC9105233, “The Nitrogen Atom of Vitamin B6 Is Essential for the Catalysis of Radical Aminomutases” (International Journal of Molecular Sciences, 2022)

Target: T1, lysine 5,6-aminomutase (5,6-LAM) (Acetoanaerobium sticklandii, UniProt E3PRJ4+E3PRJ5)
T1 construct: gene kamD
Settings: dAdoCbl, NH4-EPPS pH 8.5, reaction 4 min, PLP analogue replacing PLP

T1 sequence (E3PRJ5 whole entry): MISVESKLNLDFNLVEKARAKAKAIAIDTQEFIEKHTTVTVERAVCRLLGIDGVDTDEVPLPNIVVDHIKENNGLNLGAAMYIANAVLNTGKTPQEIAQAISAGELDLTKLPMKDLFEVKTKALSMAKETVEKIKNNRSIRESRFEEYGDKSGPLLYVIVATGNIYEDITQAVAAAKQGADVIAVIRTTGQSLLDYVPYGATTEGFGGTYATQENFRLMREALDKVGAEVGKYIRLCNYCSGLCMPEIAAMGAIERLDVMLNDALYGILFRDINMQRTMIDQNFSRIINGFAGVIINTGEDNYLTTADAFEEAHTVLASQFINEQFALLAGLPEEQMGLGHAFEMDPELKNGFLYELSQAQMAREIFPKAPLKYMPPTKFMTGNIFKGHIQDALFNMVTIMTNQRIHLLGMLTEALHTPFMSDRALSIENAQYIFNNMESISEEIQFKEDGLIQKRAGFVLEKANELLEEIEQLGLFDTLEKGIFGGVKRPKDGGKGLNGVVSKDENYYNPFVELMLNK
T1 sequence (E3PRJ4 whole entry): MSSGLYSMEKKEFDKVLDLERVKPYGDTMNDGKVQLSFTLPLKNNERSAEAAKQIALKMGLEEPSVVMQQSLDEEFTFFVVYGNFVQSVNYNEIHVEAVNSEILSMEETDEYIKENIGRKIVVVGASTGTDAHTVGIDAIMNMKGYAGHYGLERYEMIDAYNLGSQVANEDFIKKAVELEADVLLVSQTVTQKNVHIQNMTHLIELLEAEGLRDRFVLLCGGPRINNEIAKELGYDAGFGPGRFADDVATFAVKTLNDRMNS

**Q.** For Cc1ccc(COP(=O)(O)O)c(C=O)c1O [dAPLP], which “EPR of substrate-related radical with 4-thia-L-lysine” value is on record?
**A.** this spectrum obtained with dAPLP can be attributed to the corresponding S^•
